We go through 31 compounds from patent publication US20060128724A1, “Pyrazole-substituted aminoheteroaryl compounds as protein kinase inhibitors” (AGOURON PHARMACEUTICALS, INC., priority 2004, published 2006).

Read-outs that look alike come from different tables or passages of the source.

The target of the assay is T1, c-MET (HGFR) (Homo sapiens, UniProt P08581).
T1 construct: purchased Upstate 14-526
Kind of assay: HGFR Continuous-Coupled Spectrophotometric Assay. To be noted: Met-2 substrate peptide, 50 nM HGFR, 37° C. It counts as biochemical. Put shortly: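 Tyrosine kinase activity of 50 nM HGFR on the activation-loop Met-2 peptide, followed as NADH consumption at 340 nm over 10 min at 37 °C in a pyruvate kinase/LDH coupled system, HEPES pH 7.5 buffer with MgCl2 and DTT.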

T1 sequence (P08581 974-1390 limits assumed): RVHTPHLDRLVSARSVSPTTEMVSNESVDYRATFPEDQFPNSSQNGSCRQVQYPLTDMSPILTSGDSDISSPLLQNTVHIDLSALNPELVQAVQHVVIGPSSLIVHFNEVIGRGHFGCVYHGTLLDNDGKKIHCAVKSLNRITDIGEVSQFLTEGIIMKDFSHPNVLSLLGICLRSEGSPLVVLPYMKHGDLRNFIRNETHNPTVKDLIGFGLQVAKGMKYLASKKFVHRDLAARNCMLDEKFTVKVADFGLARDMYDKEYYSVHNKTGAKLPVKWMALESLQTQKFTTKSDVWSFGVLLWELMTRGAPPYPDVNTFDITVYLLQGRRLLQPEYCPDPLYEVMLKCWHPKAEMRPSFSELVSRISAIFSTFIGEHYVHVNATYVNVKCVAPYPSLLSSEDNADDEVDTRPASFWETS

In the case of `CC(Oc1cc(-c2cnn(C)c2N)cnc1N)c1c(Cl)ccc(F)c1Cl` (stereo not shown) [Example 13, 5-(5-Amino-1-methyl-1H-pyrazol-4-yl)-3-[1-(2,6-dichloro-3-fluoro-phenyl)-ethoxy]-pyridin-2-ylamine], under “read-out: c-Met Ki”, the inhibition constant (Ki) worked out at 130 nM. Consider `CC(Oc1cc(-c2cnn(C3CCN(C)CC3)c2)cnc1N)c1c(Cl)ccc(F)c1Cl` (stereo not shown) [Example 39, 3-[1-(2,6-Dichloro-3-fluoro-phenyl)-ethoxy]-5-[1-(1-methyl-piperidin-4-yl)-1H-pyrazol-4-yl]-pyridin-2-ylamine], for which, for the setting “read-out: c-Met Ki”, the inhibitory constant (Ki) came out at 10 nM.

For `Cc1ccc(Cl)c(C(C)Oc2cc(-c3cnn(C4CCNCC4)c3)cnc2N)c1Cl` (stereo not shown) [Example 143, 3-[1-(2,6-Dichloro-3-methyl-phenyl)-ethoxy]-5-(1-piperidin-4-yl-1H-pyrazol-4-yl)-pyridin-2-ylamine], the Ki (read-out: Met Ki) was 22 nM.

`COCCN1CC(n2cc(-c3cnc(N)c(OC(C)c4c(Cl)ccc(F)c4Cl)c3)cn2)C1` (stereo not shown) [Example 103, 3-[1-(2,6-dichloro-3-fluorophenyl)ethoxy]-5-{1-[1-(2-methoxyethyl)azetidin-3-yl]-1H-pyrazol-4-yl}-pyridin-2-amine]: the Ki (read-out: c-Met Ki) turned out to be 70 nM.

As to `CC(Oc1cc(-c2cnn(C(C)(C)C(=O)NCCCN(C)C)c2)cnc1N)c1c(Cl)ccc(F)c1Cl` (stereo not shown) [Example 16, 2-(4-{6-Amino-5-[1-(2,6-dichloro-3-fluoro-phenyl)-ethoxy]-pyridin-3-yl}-pyrazol-1-yl)-N-(3-dimethylamino-propyl)-isobutyramide], the inhibitory constant (Ki) (read-out: c-Met Ki) amounted to 60 nM. In the case of `CC(Oc1cc(-c2cnn(C3CCNCC3)c2)cnc1N)c1cc(F)cc(F)c1Cl` (stereo not shown) [Example 144, 3-[1-(2-Chloro-3,5-difluoro-phenyl)-ethoxy]-5-(1-piperidin-4-yl-1H-pyrazol-4-yl)-pyridin-2-ylamine], the Ki (read-out: Met Ki) turned out to be 587 nM. Same read-out and setting: as for `COc1cc(F)c(Cl)c(C(C)Oc2cc(-c3cnn(C4CCNCC4)c3)cnc2N)c1Cl` (stereo not shown) [Example 148, 3-[1-(2,6-Dichloro-3-fluoro-5-methoxy-phenyl)-ethoxy]-5-(1-peridin-4-yl-1H-pyrazol-4-yl)-pyridin-ylamine], the figure is 23 nM. `CC(Oc1cc(-c2cnn(C[C@H]3COC(C)(C)O3)c2)cnc1N)c1c(Cl)ccc(F)c1Cl` (stereo in doubt) [Example 86, 3-[1-(2,6-Dichloro-3-fluoro-phenyl)-ethoxy]-5-[1-(2,2-dimethyl-[1,3]dioxolan-4-ylmethyl)-1H-pyrazol-4-yl]-pyridin-2-ylamine]: the Ki (read-out: c-Met Ki) turned out to be 62 nM. Still for that read-out and setting: to `CCOC(=O)[C@H]1CC1Cn1cc(-c2cnc(N)c(OC(C)c3c(Cl)ccc(F)c3Cl)c2)cn1` (stereo in doubt) [Example 9, ethyl 2-[(4-{6-amino-5-[1-(2,6-dichloro-3-fluorophenyl)ethoxy]pyridin-3-yl}-1H-pyrazol-1-yl)methyl]cyclopropanecarboxylate] belongs 42 nM; to `CCN1CCC(n2cc(-c3cnc(N)c(OC(C)c4c(Cl)ccc(F)c4Cl)c3)cn2)CC1` (stereo not shown) [Example 43, 3-[1-(2,6-Dichloro-3-fluoro-phenyl)-ethoxy]-5-[1-(1-ethyl-piperidin-4-yl)-1H-pyrazol-4-yl]-pyridin-2-ylamine], 10 nM. On the same count and under the same terms, to `C[C@@H](Oc1cc(-c2cnn(C3CCN(C)CC3)c2)cnc1N)c1c(Cl)ccc(F)c1Cl` [Example 46, 3-[(R)-1-(2,6-Dichloro-3-fluoro-phenyl)-ethoxy]-5-[1-(1-methyl-piperidin-4-yl)-1H-pyrazol-4-yl]-pyridin-2-ylamine] belongs 10 nM; to `CC(Oc1cc(-c2cnn(C(C)(C)C(=O)N(C)C)c2)cnc1N)c1c(Cl)ccc(F)c1Cl` (stereo not shown) [Example 58, 2-(4-{6-Amino-5-[1-(2,6-dichloro-3-fluoro-phenyl)-ethoxy]-pyridin-3-yl}-pyrazol-1-yl)-N,N-dimethyl-isobutyramide], 125 nM; to `CC(Oc1cc(-c2cnn(C3CCN(S(C)(=O)=O)CC3)c2)cnc1N)c1c(Cl)ccc(F)c1Cl` (stereo not shown) [Example 50, 3-[1-(2,6-Dichloro-3-fluoro-phenyl)-ethoxy]-5-[1-(1-methanesulfonyl-piperidin-4-yl)-1H-pyrazol-4-yl]-pyridin-2-ylamine], 10 nM. In the case of `COc1ccc(Cl)c(C(C)Oc2cc(-c3cnn(C4CCNCC4)c3)cnc2N)c1Cl` (stereo not shown) [Example 138, 3-(1-(2,6-Dichloro-3-methoxy-phenyl)-ethoxy]-5-(1-piperidin-4-yl-1H-pyrazol-4-yl)-pyridin-2-ylamine], the Ki (read-out: Met Ki) came to 10 nM.

As for `CCOc1ccc(Cl)c(C(C)Oc2cc(-c3cnn(C4CCNCC4)c3)cnc2N)c1Cl` (stereo not shown) [Example 139], under “read-out: Met Ki”, the Ki amounted to 22 nM. For the compound `CC(Oc1cc(-c2cnn(C3CC4CCC(C3)N4)c2)cnc1N)c1c(Cl)ccc(F)c1Cl` (stereo not shown) [Example 99, 5-[1-(8-azabicyclo[3.2.1]oct-3-yl)-1H-pyrazol-4-yl]-3-[1-(2,6-dichloro-3-fluorophenyl)ethoxy]pyridin-2-amine], the Ki (read-out: c-Met Ki) was found to be 5 nM. Still for that read-out and setting: to `CNC(=O)C1CC(n2cc(-c3cnc(N)c(OC(C)c4c(Cl)ccc(F)c4Cl)c3)cn2)CN1` (stereo not shown) [Example 90, 4-(4-{6-Amino-5-[1-(2,6-dichloro-3-fluoro-phenyl)-ethoxy]-pyridin-3-yl}-pyrazol-1-yl)-pyrrolidine-2-carboxylic acid methylamide] belongs 34 nM; to `CC(Oc1cc(-c2cnn(C3CCC3)c2)cnc1N)c1c(Cl)ccc(F)c1Cl` (stereo not shown) [Example 49, 5-(1-Cyclobutyl-1H-pyrazol-4-yl)-3-[1-(2,6-dichloro-3-fluoro-phenyl)-ethoxy]-pyridin-2-ylamine], 20 nM. Same read-out and setting: to `CC(Oc1cc(-c2cnn(CC3(O)CCN(C(=O)OC(C)(C)C)CC3)c2)cnc1N)c1c(Cl)ccc(F)c1Cl` (stereo not shown) [Example 3, tert-butyl 4-[(4-{6-amino-5-[1-(2,6-dichloro-3-fluorophenyl)ethoxy]pyridin-3-yl}1H-pyrazol-1-yl)methyl]-4-hydroxypiperidine-1-carboxylate] belongs 104 nM; to `CC(Oc1cc(-c2cnn(C3CNC(C(N)=O)C3)c2)cnc1N)c1c(Cl)ccc(F)c1Cl` (stereo not shown) [Example 91, 4-(4-{6-Amino-5-[1-(2,6-dichloro-3-fluoro-phenyl)-ethoxy]-pyridin-3-yl}pyrazol-1-yl)-pyrrolidine-2-carboxylic acid amide], 44 nM; to `CC(Oc1cc(-c2cnn(C(C)(C)CO)c2)cnc1N)c1c(Cl)ccc(F)c1Cl` (stereo not shown) [Example 59, 2-(4-{6-Amino-5-[1-(2,6-dichloro-3-fluoro-phenyl)-ethoxy]-pyridin-3-yl}-pyrazol-1-yl)-2-methyl-propan-1-ol], 14 nM.

Regarding `CC(Oc1cc(-c2cnn(CCN3CCCC3=O)c2)cnc1N)c1c(Cl)ccc(F)c1Cl` (stereo not shown) [Example 133, 1-[2-(4-{6-Amino-5-[1-(2,6-dichloro-3-fluoro-phenyl)-ethoxy]-pyridin-3-yl}pyrazol-1-yl)-ethyl]-pyrrolidin-2-one], the Ki (read-out: Met Ki) stood at 105 nM.

On to `CC(Oc1cc(-c2cnn(C3CCOC3)c2)cnc1N)c1c(Cl)ccc(F)c1Cl` (stereo not shown) [Example 27, 3-[1-(2,6-Dichloro-3-fluoro-phenyl)-ethoxy]-5-[1-(tetrahydro-furan-3-yl)-1H-pyrazol-4-yl]-pyridin-2-ylamine], for which the Ki (read-out: c-Met Ki) was 40 nM. In the case of `CC(Oc1cc(-c2cnn(C3CN(C(=O)CN(C)C)C3)c2)cnc1N)c1c(Cl)ccc(F)c1Cl` (stereo not shown) [Example 7, 3-[1-(2,6-dichloro-3-fluorophenyl)ethoxy]-5-(1-{1-[(dimethylamino)acetyl]azetidin-3-yl}-1H-pyrazol-4-yl)pyridin-2-amine], the Ki (read-out: c-Met Ki) was 22 nM.

`C[C@@H](Oc1nc(-c2cnn(C3CCN(C(=O)CN(C)C)CC3)c2)cnc1N)c1c(Cl)ccc(F)c1Cl` [Example 70, 1-[4-(4-{5-Amino-6-[(R)-1-(2,6-dichloro-3-fluoro-phenyl)-ethoxy]-pyrazin-2-yl}-pyrazol-1-yl)-piperidin-1-yl]-2-dimethylamino-ethanone]: under “read-out: c-Met Ki”, the Ki is 15 nM.

Take `CC(C)Cn1cc(-c2cnc(N)c(OC(C)c3c(Cl)ccc(F)c3Cl)c2)cn1` (stereo not shown) [Example 22, 3-[1-(2,6-Dichloro-3-fluoro-phenyl)-ethoxy]-5-(1-isobutyl-1H-pyrazol-4-yl)-pyridin-2-ylamine]: the Ki (read-out: c-Met Ki) is 100 nM. In the case of `CC(=O)N1CC(Cn2cc(-c3cnc(N)c(OC(C)c4c(Cl)ccc(F)c4Cl)c3)cn2)C1` (stereo not shown) [Example 106, 5-{1-[(1-acetylazetidin-3-yl)methyl]-1H-pyrazol-4-yl}-3-[1-(2,6-dichloro-3-fluorophenyl)ethoxy]pyridin-2-amine], the Ki (read-out: c-Met Ki) turned out to be 29 nM. With `C[C@@H](Oc1nc(-c2cnn(C3CCN(C)CC3)c2)cnc1N)c1c(Cl)ccc(F)c1Cl` [Example 69, 3-[(R)-1-(2,6-Dichloro-3-fluoro-phenyl)-ethoxy]-5-[1-(1-methyl-piperidin-4-yl)-1H-pyrazol-4-yl]-pyrazin-2-ylamine], for the setting “read-out: c-Met Ki”, the inhibitory constant (Ki) was determined as 30 nM.

In the case of `CC(Oc1cc(-c2cnn(C3CCN(C(=O)NCCO)CC3)c2)cnc1N)c1c(Cl)ccc(F)c1Cl` (stereo not shown) [Example 122, 4-(4-[6-Amino-5-[1-(2,6-dichloro-3-fluoro-phenyl)-ethoxy]-pyridin-3-yl}-pyrazol-1-yl)-piperidine-1-carboxylic acid (2-hydroxy-ethyl)-amide], the inhibition constant (Ki) (read-out: Met Ki) was 150 nM. Consider `CC(Oc1cc(-c2cnn(C3CCN(C(=O)OC(C)(C)C)CC3)c2)cnc1N)c1c(Cl)ccc(F)c1Cl` (stereo not shown) [Example 94, tert-butyl 4-(4-{6-amino-5-[1-(2,6-dichloro-3-fluorophenyl)ethoxy]pyridin-3-yl}-1H-pyrazol-1-yl)piperidine-1-carboxylate], for which, for the setting “read-out: c-Met Ki”, the inhibition constant Ki is 35 nM.

As for `CC(Oc1cc(-c2cnn(C3CCS(=O)(=O)CC3)c2)cnc1N)c1c(Cl)ccc(F)c1Cl` (stereo not shown) [Example 116, 3-[1-(2,6-dichloro-3-fluorophenyl)ethoxy]-5-[1-(1,1-dioxidotetrahydro-2H-thiopyran-4-yl)-1H-pyrazol-4-yl]pyridin-2-amine], the inhibition constant (Ki) (read-out: c-Met Ki) worked out at 17 nM.

Broadly, the Ki is a dissociation constant, usually derived from enzyme kinetics or from competition with a known ligand.
